According to patent publication US5468734A, “Prophylactic and remedial preparation for diseases attendant on hyperglycemia, and wholesome food” (Godo Shusei Co., Ltd., priority 1992, dated 1995):
Where two headings read alike, the source gives them in different places.

Legend:
[1] = molecular target: T1, sucrase (carbohydrase derived from rabbit small intestine mucous membrane) (Oryctolagus cuniculus, UniProt P07768); test: Action to inhibit the hydrolytic activity of homogenate prepared from rabbit small intestine mucous membrane: sucrase inhibition; assay type: biochemical; details: for inhibition at 2000 µg/mL / inhibition at 500 µg/mL / inhibition at 1000 µg/mL / inhibition at 4000 µg/mL: 0.25 h
T1 construct: suspended again in a 10 mM potassium phosphate buffer (pH: 7.0), thereby obtaining a crude enzyme suspension; from tissue; host or cells: rabbit small intestine (title: mucous membrane), homogenate, 60,000×g precipitate
T1 sequence (P07768 1008-1827 limits assumed): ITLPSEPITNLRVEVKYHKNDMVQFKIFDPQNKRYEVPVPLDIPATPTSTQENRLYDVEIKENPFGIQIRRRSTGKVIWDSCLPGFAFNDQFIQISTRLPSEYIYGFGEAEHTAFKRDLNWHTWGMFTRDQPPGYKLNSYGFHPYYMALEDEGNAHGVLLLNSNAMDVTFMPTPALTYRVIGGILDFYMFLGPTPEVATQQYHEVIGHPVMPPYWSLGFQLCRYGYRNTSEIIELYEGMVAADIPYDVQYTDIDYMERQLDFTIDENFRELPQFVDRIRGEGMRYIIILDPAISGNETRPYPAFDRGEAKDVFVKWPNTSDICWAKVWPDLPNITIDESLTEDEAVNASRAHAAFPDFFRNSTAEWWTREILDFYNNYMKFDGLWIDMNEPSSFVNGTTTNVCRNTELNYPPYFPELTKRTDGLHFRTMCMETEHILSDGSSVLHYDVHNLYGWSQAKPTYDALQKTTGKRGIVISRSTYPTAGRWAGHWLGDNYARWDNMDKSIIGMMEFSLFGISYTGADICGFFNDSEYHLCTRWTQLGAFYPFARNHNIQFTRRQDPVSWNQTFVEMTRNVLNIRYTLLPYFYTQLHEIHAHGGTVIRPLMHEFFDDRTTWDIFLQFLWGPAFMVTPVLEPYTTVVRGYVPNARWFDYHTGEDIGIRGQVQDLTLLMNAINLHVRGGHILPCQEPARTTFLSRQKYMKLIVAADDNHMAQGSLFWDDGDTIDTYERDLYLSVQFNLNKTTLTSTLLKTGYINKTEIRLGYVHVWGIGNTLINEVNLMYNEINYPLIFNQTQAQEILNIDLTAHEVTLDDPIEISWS
T1 sequence (P07768 2-1007 partner limits assumed): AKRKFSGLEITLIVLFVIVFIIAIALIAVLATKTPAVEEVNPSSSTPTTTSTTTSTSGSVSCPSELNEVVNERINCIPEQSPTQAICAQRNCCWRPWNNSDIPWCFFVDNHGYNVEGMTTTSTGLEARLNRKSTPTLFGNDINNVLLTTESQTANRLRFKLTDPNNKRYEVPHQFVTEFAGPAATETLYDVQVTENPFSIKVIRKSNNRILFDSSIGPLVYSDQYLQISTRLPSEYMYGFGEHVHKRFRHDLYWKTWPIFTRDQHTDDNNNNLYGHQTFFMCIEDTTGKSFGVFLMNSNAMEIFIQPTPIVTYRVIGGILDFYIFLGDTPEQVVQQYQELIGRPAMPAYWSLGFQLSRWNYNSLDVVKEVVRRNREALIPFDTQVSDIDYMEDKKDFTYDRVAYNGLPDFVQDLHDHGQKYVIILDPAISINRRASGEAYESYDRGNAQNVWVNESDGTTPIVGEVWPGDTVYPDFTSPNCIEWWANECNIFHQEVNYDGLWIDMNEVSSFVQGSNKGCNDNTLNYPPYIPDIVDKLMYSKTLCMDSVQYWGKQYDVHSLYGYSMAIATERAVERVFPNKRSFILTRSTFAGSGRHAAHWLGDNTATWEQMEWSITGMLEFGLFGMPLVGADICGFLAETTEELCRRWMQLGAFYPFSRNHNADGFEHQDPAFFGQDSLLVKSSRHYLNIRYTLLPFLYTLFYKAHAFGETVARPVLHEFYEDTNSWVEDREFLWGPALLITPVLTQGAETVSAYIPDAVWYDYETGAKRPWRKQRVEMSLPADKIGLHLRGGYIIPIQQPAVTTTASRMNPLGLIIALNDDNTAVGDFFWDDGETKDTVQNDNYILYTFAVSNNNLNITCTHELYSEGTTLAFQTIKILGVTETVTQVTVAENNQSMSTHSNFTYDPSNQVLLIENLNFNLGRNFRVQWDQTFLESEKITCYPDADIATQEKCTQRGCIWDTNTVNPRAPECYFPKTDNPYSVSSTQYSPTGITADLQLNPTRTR
Method: (§1) (Action to inhibit the hydrolytic activity of homogenate prepared from rabbit small intestine mucous membrane to carbohydrate)
(§2) A native kind of white rabbits (weight: 3.0-3.5 kg) were sacrificed by exsanguination to take out their small intestines.
(§3) After freezing and thawing the small intestines thus taken out, they were homogenized in a 5 mM EDTA buffer (pH: 7.0) and subjected to centrifugation for 60 minutes at 60,000×g. Precipitate thus formed was collected and suspended again in a 10 mM potassium phosphate buffer (pH: 7.0), thereby obtaining a crude enzyme suspension.
(§4) Sucrose (20 mM) and maltose (20 mM) were used as substrates.
(§5) Each reaction mixture was formulated so as to contain 350 microliters of a 100 mM maleate buffer (pH: 6.8), 100 microliters of a substrate solution, 50 microliters of the crude enzyme suspension and 50 microliters of a test solution. Substances to be tested were separately dissolved in a maleate buffer (pH: 6.8) before use.
(§6) Respective reactions were conducted for 15 minutes at 37° C.

[2] = tested on: maltase (carbohydrase derived from rabbit small intestine mucous membrane); test: Action to inhibit the hydrolytic activity of homogenate prepared from rabbit small intestine mucous membrane: maltase inhibition; assay type: biochemical; details: for Maltase inhibition rate: substrate maltose 20 mM, pH 6.8, 37° C., 15 minutes
Method: as §1, §2, §3, §4, §5, §6

[3] = 200 mg/dl, substrate sucrose 20 mM, pH 6.8, 37° C., 15 minutes, read-out: Sucrase inhibition rate
[4] = pH 6.8, read-out: Sucrase inhibition rate

Row | SMILES | inhibition at 2000 µg/mL [1, 3] | Maltase inhibition rate ([2]; 200 mg/dl) | sucrase-inhibiting action (in words) [1] | maltase-inhibiting action (in words) [2] | further results
1 | OC[C@H]1O[C@@H](O[C@H]2[C@H](O)[C@@H](O)C(O)O[C@@H]2CO)[C@H](O)[C@@H](O)[C@@H]1O (stereo partly drawn) [Cellobiose, reference compound] | -0.4% | 2.8% | – | – | –
2 | N[C@H]1C(O)O[C@H](CO)[C@H](O)[C@@H]1O (stereo partly drawn) [D-Galactosamine, D-galactosamine, reference compound] | -6.5% | -4.5% | no or little inhibiting action | no or little inhibiting action | –
3 | C[C@@H](O)[C@H](O)[C@H](O)[C@@H](O)C=O [D-Fucose, D-fucose, reference compound] | 8.7% | 4.1% | no or little inhibiting action | no or little inhibiting action | –
4 | O=C[C@H](O)[C@@H](O)[C@@H](O)[C@H](O)CO [D-Galactose, D-galactose, reference compound] | – | 15.3% | no or little inhibiting action | no or little inhibiting action | inhibition at 500 µg/mL [1, 4]: -0.6%; inhibition at 1000 µg/mL [1, 4]: -0.9%; inhibition at 2000 µg/mL [1, 4]: 6.4%; inhibition at 4000 µg/mL [1, 4]: 20.2%; Maltase inhibition rate ([2]; 50 mg/dl): -0.8%; Maltase inhibition rate ([2]; 100 mg/dl): 13.9%; Maltase inhibition rate ([2]; 400 mg/dl): 11.8%
5 | O=C[C@@H](O)[C@H](O)[C@H](O)CO [D-Arabinose, D-arabinose, reference compound] | 11.7% | 7.8% | no or little inhibiting action | no or little inhibiting action | inhibition at 500 µg/mL ([1]; 50 mg/dl, substrate sucrose 20 mM, pH 6.8, 37° C., 15 minutes, read-out: Sucrase inhibition rate): 4%; inhibition at 1000 µg/mL ([1]; 100 mg/dl, substrate sucrose 20 mM, pH 6.8, 37° C., 15 minutes, read-out: Sucrase inhibition rate): 6.8%
6 | OC[C@H]1O[C@@H](O[C@H]2[C@H](O)[C@H](O)C(O)O[C@@H]2CO)[C@@H](O)[C@@H](O)[C@@H]1O (stereo partly drawn) [reference compound] | 0.9% | 0.6% | – | – | –
7 | OC1OC[C@@H](O[C@@H]2OC[C@@H](O[C@@H]3OC[C@@H](O[C@@H]4OC[C@@H](O[C@@H]5OC[C@@H](O)[C@H](O)[C@H]5O)[C@H](O)[C@H]4O)[C@H](O)[C@H]3O)[C@H](O)[C@H]2O)[C@H](O)[C@H]1O (stereo partly drawn) [reference compound] | -0.5% | 1.5% | – | – | –
8 | OC1OC[C@@H](O[C@@H]2OC[C@@H](O)[C@H](O)[C@H]2O)[C@H](O)[C@H]1O (stereo partly drawn) [reference compound] | 10.7% | 5.5% | – | – | –
9 | O=C(CO)[C@@H](O)[C@H](O)[C@@H](O)CO [L-Sorbose, L-sorbose, reference compound] | 5.1% | 7.5% | no or little inhibiting action | no or little inhibiting action | –
10 | O=C[C@@H](O)[C@@H](O)[C@@H](O)[C@H](O)CO [D-Talose, D-talose, reference compound] | – | 5.3% | no or little inhibiting action | no or little inhibiting action | inhibition at 2000 µg/mL [1, 4]: 5.4%
11 | OC[C@H]1O[C@@H](OC[C@H]2OC(O)[C@H](O)[C@@H](O)[C@@H]2O)[C@H](O)[C@@H](O)[C@@H]1O (stereo partly drawn) [Gentiobiose, reference compound] | -2.4% | 1.9% | – | – | –
12 | OC1OC[C@@H](O[C@@H]2OC[C@@H](O[C@@H]3OC[C@@H](O)[C@H](O)[C@H]3O)[C@H](O)[C@H]2O)[C@H](O)[C@H]1O (stereo partly drawn) [reference compound] | 2.7% | 3.6% | – | – | –
13 | OC1OC[C@@H](O[C@@H]2OC[C@@H](O[C@@H]3OC[C@@H](O[C@@H]4OC[C@@H](O)[C@H](O)[C@H]4O)[C@H](O)[C@H]3O)[C@H](O)[C@H]2O)[C@H](O)[C@H]1O (stereo partly drawn) [reference compound] | 3.5% | 2.0% | – | – | –
14 | OC[C@H]1O[C@@H](O[C@H]2[C@H](O)[C@H](O)[C@H](O[C@H]3[C@H](O)[C@H](O)[C@H](O[C@H]4[C@H](O)[C@H](O)[C@H](O[C@H]5[C@H](O)[C@H](O)C(O)O[C@@H]5CO)O[C@@H]4CO)O[C@@H]3CO)O[C@@H]2CO)[C@@H](O)[C@@H](O)[C@@H]1O (stereo partly drawn) [reference compound] | 4% | 3.5% | – | – | –
15 | O=C[C@H](O)[C@H](O)[C@@H](O)CO [L-Lyxose, L-lyxose, reference compound] | -0.2% | 10.0% | no or little inhibiting action | no or little inhibiting action | –
16 | O=C(CO)[C@H](O)[C@@H](O)CO [L-Xylulose, L-xylulose, reference compound] | 10.8% | 6.4% | no or little inhibiting action | no or little inhibiting action | –
17 | OC[C@H]1O[C@@H](O[C@H]2[C@H](O)[C@H](O)[C@H](O[C@H]3[C@H](O)[C@H](O)[C@H](O[C@H]4[C@H](O)[C@H](O)C(O)O[C@@H]4CO)O[C@@H]3CO)O[C@@H]2CO)[C@@H](O)[C@@H](O)[C@@H]1O (stereo partly drawn) [reference compound] | -0.3% | 0.7% | – | – | –
18 | O=C[C@@H](O)[C@@H](O)[C@H](O)[C@H](O)CO [D-Mannose, D-mannose, reference compound] | – | 25.1% | no or little inhibiting action | no or little inhibiting action | inhibition at 500 µg/mL [1, 4]: -0.7%; inhibition at 1000 µg/mL [1, 4]: 12.9%; inhibition at 2000 µg/mL [1, 4]: 19.3%; inhibition at 4000 µg/mL [1, 4]: 27.8%; Maltase inhibition rate ([2]; 50 mg/dl): 3.2%; Maltase inhibition rate ([2]; 100 mg/dl): 10.6%; Maltase inhibition rate ([2]; 400 mg/dl): 30.4%
19 | OC[C@H]1O[C@@H](O[C@H]2[C@H](O)[C@H](O)[C@H](O[C@H]3[C@H](O)[C@H](O)C(O)O[C@@H]3CO)O[C@@H]2CO)[C@@H](O)[C@@H](O)[C@@H]1O (stereo partly drawn) [reference compound] | 2% | 1.3% | – | – | –
20 | OC1OC[C@@H](O[C@@H]2OC[C@@H](O[C@@H]3OC[C@@H](O[C@@H]4OC[C@@H](O[C@@H]5OC[C@@H](O[C@@H]6OC[C@@H](O)[C@H](O)[C@H]6O)[C@H](O)[C@H]5O)[C@H](O)[C@H]4O)[C@H](O)[C@H]3O)[C@H](O)[C@H]2O)[C@H](O)[C@H]1O (stereo partly drawn) [reference compound] | -7.9% | -5.1% | – | – | –
